Test results taken from article PMC3792958, “Olomoucine II, but Not Purvalanol A, Is Transported by Breast Cancer Resistance Protein (ABCG2) and P-Glycoprotein (ABCB1)” (PLoS ONE, 2013).
One block for each compound: values may come before it.

Assays:
ABCG2 [1] = tested on: ABCG2; set-up: method as in PMID 18841444; details: in vitro hematoporphyrin transport, Sf9 membrane vesicles; cited from earlier work
[2] = tested on: ABCG2-expressing cell lines; details: combination method of Chou-Talalay; cited from earlier work
MDCKII cells = test: Generation of sulfated conjugate in MDCKII cells (HPLC/MS); type: in vitro ADME, canine; details: MDCKII-ABCG2, MDCKII-ABCB1 and MDCKII-par; MS analysis
Description: Concentration of CDKi was determined via HPLC/MS analysis. […] Dextran leakage was accepted up to 1% per hour.
In olomoucine II transport experiments, we recorded time-dependent generation of an unknown peak in the fifth minute of HPLC analysis in all three cell lines tested (MDCKII-ABCG2, MDCKII-ABCB1 and MDCKII-par). Based on the MS analysis, the compound was identified as a sulfated conjugate of olomoucine II (Fig. 2). […] On the other hand, the amount of sulfated metabolite increased with time and caused remarkable distortion of the results of parent compound. Therefore, when analyzing the data of unconjugated olomoucine II, the time interval was shortened to 2 hours in order to reduce the misrepresenting effect of sulfated olomoucine II. Considering ionic nature of sulfated olomoucine II, it is obvious that this compound cannot escape from the cells via passive diffusion but must utilize special transport system(s). Relative quantification of olomoucine II sulfate allowed us to describe its pharmacokinetic behavior in all MDCKII cell sublines.
Figure 2 Mass spectra of an unknown peak eluted in the fifth minute of HPLC analysis of olomoucine II transport. (A) spectrum in positive mode, (B) MS^2 in positive mode, (C) negative mode, (D) MS^2 in negative mode. […]

ABCG2 [3] = test: Cellular monolayer transport assay, MDCKII-ABCG2 cells; details: human
Description: (§1) ABCG2- and ABCB1-transduced MDCKII sublines (MDCKII-ABCG2 and MDCKII-ABCB1), which stably express ABCG2 and ABCB1 protein, respectively, were purchased from dr. Alfred Schinkeĺs lab (The Netherlands Cancer Institute, Amsterdam, The Netherlands). These transduced sublines as well as the parental MDCKII cell line (MDCKII-par) were routinely cultured in complete Dulbecco’s modified Eagle’s medium with 10% fetal bovine serum. 100 U/ml penicillin and 100 µg/ml streptomycin were used while growing the cells on the membrane inserts. All cells were routinely cultivated in antibiotic-free medium and periodically tested for mycoplasma contamination. […] Cells from passages 15 to 25 were used in all in vitro studies. Dimethyl sulfoxide was applied as a CDKi solvent in concentrations not exceeding 0.1%.
(§2) MDCKII-ABCG2, MDCKII-ABCB1 or MDCKII-par cells were seeded at a density of 1×10^6 per insert 72 h before experiment. The medium was replaced after 24 and 48 h of cultivation. One hour before the start of the experiment, the cells were washed with prewarmed 1×phospate buffered saline on both the apical and basal sides and Opti-MEM with or without fumitremorgin C or LY335979 was added into both compartments. At time 0, the experiment was started by replacing the medium with fresh Opti-MEM with or without CDKi and fumitremorgin C or LY335979 in the appropriate chamber. Samples were taken every 2 h from the opposite chambers for the duration of the experiment (6 h). Concentration of CDKi was determined via HPLC/MS analysis. Immediately after the experiment, cellular monolayer integrity was examined using fluorescein isothiocyanate labeled dextran (MW = 40 kDa). Dextran leakage was accepted up to 1% per hour.
(§3) HPLC/MS analysis using LC 20A Prominence chromatographic system (Shimadzu, Kyoto, Japan) coupled with LCQ Max advantage mass spectrometer (Thermo Finnigan, San Jose, CA, USA) was used for the quantification of olomoucine II and purvalanol A. The separation was performed on a Hypersil GOLD C18 column (100 × 4.6 mm, particle size 3 µm) protected with an OPTI-GUARD 1 mm guard column C18. The mobile phase flow rate was 0.35 ml/min and the column temperature was maintained at 40°C. The data were processed using Xcalibur 2.0 software (Thermo Finnigan, San Jose, CA, USA).
(§4) The detector was set as follows: spray voltage of 4.5 kV, capillary temperature of 320°C, sheet and auxiliary gas flows of 30 and 12 arbitrary units, respectively. […] The collision energies were 38% and 40% for olomoucine II and IS, respectively. […] The sample stability was evaluated within 94 h.
as §4, with “5.5” for “4.5”, “340°C,” for “320°C,”, “28” for “30”, “13” for “12”, “purvalanol A” for “olomoucine II”, “hours.” for “h.”
(§5) Transport of olomoucine II by ABCG2 and ABCB1 was tested in vitro using transport assays across the polarized monolayers of MDCKII-ABCG2 and MDCKII-ABCB1 cells, respectively. In this method, the transport across the monolayer is greatly accelerated in the basolateral to apical direction, when the compound is a substrate of examined transporter. Based on our previous studies, three olomoucine II concentrations (100 nM, 1 µM and 10 µM) were tested and transport ratios (r; olomoucine II transport in basolateral to apical direction divided by transport in apical to basolateral direction) 2 h after olomoucine II addition were calculated.

ABCG2 [4] = biological target: T1, ABCG2 (Homo sapiens, UniProt Q9UNQ0); test: as above
T1 sequence (Q9UNQ0 1-655): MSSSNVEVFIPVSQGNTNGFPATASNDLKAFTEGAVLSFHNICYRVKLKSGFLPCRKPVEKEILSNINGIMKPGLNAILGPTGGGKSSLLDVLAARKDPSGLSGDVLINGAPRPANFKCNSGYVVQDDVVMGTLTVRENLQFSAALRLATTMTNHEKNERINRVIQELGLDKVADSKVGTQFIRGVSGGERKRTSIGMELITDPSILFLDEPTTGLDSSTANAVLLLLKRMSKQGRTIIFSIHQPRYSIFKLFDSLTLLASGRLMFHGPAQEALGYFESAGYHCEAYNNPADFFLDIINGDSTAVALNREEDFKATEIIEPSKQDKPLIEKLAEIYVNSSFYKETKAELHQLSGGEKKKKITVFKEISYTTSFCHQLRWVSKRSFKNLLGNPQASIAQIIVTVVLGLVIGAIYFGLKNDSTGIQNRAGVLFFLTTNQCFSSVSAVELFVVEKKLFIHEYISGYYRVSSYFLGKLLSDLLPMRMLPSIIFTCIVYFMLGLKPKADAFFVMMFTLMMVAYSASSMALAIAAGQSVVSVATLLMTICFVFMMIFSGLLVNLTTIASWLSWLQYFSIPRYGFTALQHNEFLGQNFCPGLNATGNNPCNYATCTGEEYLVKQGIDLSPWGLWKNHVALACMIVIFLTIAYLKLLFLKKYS
Description: as §1, §2, §3, §4
as §4, with “5.5” for “4.5”, “340°C,” for “320°C,”, “28” for “30”, “13” for “12”, “purvalanol A” for “olomoucine II”, “hours.” for “h.”
as §5

ABCG2 [5] = details: cited from earlier work; for inhibition of ABCG2: in vitro and in situ levels
ABCB1 [6] = test: Cellular monolayer transport assay, MDCKII-ABCB1 cells; details: human
Description: as §1, §2, §3, §4
as §4, with “5.5” for “4.5”, “340°C,” for “320°C,”, “28” for “30”, “13” for “12”, “purvalanol A” for “olomoucine II”, “hours.” for “h.”
as §5

ABCB1 [7] = biological target: ABCB1 (Homo sapiens, UniProt P08183); test: as above
Sequence of ABCB1 (Homo sapiens, UniProt P08183) (P08183 whole entry): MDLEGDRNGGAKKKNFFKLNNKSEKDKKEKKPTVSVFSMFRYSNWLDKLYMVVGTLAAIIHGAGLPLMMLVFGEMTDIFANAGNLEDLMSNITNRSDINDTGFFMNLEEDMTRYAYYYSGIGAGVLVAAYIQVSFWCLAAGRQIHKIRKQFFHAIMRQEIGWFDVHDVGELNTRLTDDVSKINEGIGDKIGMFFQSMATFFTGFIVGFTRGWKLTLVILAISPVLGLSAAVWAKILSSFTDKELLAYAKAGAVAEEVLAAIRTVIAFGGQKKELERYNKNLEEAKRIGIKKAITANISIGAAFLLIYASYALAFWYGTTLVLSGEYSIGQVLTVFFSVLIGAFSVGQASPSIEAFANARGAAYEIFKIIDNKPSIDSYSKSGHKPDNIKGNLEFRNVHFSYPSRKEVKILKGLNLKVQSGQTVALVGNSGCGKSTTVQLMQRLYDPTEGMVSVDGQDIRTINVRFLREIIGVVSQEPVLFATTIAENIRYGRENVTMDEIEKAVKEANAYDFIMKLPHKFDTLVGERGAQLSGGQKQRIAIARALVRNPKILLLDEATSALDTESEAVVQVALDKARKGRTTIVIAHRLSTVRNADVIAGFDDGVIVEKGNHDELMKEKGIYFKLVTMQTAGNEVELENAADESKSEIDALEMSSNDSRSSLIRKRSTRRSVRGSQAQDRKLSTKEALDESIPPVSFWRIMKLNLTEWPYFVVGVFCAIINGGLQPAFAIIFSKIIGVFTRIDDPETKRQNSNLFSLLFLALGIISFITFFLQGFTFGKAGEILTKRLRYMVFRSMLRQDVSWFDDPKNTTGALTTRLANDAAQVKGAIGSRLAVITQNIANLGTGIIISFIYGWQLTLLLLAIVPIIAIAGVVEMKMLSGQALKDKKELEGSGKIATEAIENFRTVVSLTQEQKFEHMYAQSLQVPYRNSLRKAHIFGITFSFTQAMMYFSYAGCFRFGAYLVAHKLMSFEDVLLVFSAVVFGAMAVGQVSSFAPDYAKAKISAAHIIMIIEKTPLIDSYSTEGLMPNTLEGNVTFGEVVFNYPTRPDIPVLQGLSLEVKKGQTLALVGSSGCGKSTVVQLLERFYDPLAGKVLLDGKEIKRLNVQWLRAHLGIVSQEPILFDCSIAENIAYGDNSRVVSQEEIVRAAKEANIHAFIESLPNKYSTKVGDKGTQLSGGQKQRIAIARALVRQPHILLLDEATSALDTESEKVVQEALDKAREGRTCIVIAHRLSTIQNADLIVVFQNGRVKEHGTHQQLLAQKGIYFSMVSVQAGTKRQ
Description: as §1, §2, §3, §4
as §4, with “5.5” for “4.5”, “340°C,” for “320°C,”, “28” for “30”, “13” for “12”, “purvalanol A” for “olomoucine II”, “hours.” for “h.”
as §5

[8] = Cellular monolayer transport assay, parental MDCKII-par cells; details: dog, MDCK
Description: as §1, §2, §3, §4
as §4, with “5.5” for “4.5”, “340°C,” for “320°C,”, “28” for “30”, “13” for “12”, “purvalanol A” for “olomoucine II”, “hours.” for “h.”
as §5

MDCKII-par cells = test: as above; details: olomoucine II 100 nM and 1 µM, 2 h, 1 µM LY335979 (endogenous canine Abcb1 inhibitor)
Description: as §1, §2, §3, §4
as §4, with “5.5” for “4.5”, “340°C,” for “320°C,”, “28” for “30”, “13” for “12”, “purvalanol A” for “olomoucine II”, “hours.” for “h.”
as §5

ABCB1 [9] = details: bovine brain microvessel endothelial cell monolayers; cited from earlier work
ABCG2 [10] = details: cited from earlier work
[11] = tested on: multidrug resistance associated protein 1 (ABCC1); set-up: method as in PMID 20699410; details: cited from earlier work
[12] = tested on: multidrug resistance associated protein 2 (ABCC2); set-up: method as in PMID 20699410; details: cited from earlier work

Compound: COc1cc2ncnc(Nc3cccc(O)c3)c2cc1OC [WHI-P180]
ABCG2 inhibition (ABCG2 [1]): ABCG2 inhibition

transport by placental ABCB1/ABCG2 in perfused rat placenta (placental ABCB1/ABCG2): actively pumped from fetus to mother
efflux ratio at 2 h, 100 nM (ABCG2 [3]; with fumitremorgin C 5 µM): 1.32
efflux ratio at 2 h, 1 µM (ABCG2 [3]; with fumitremorgin C 5 µM): 1.21
efflux ratio at 2 h, 100 nM (ABCG2 [4]; human): 2.27
efflux ratio at 2 h, 10 µM (ABCG2 [4]; human): 1.29
ABCG2 substrate status (ABCG2 [4]; in vitro, MDCKII-ABCG2 monolayers): dual substrate of ABCG2 and ABCB1
transport ratio r (basolateral to apical divided by apical to basolateral) (ABCG2 [4]; olomoucine II 1 µM, 2 h, without inhibitor): 2.31
efflux ratio at 2 h, 100 nM (ABCB1 [6]; MDCK-MDR1, with LY335979 1 µM): 1.48
efflux ratio at 2 h, 1 µM (ABCB1 [6]; MDCK-MDR1, with LY335979 1 µM): 1.83
asymmetry in transport in MDCKII-ABCB1 cells in comparison with ABCG2 transduced cells (ABCB1 [7]; 100 nM and 1 µM, 2 h): approximately 3 fold
efflux ratio at 2 h, 100 nM (ABCB1 [7]; human, MDCK-MDR1): 6.45
efflux ratio at 2 h, 1 µM (ABCB1 [7]; human, MDCK-MDR1): 6.83
efflux ratio at 2 h, 10 µM (ABCB1 [7]; human, MDCK-MDR1): 2.51
ABCB1 substrate status (ABCB1 [7]; in vitro, MDCKII-ABCB1 monolayers): substrate of ABCB1
efflux ratio at 2 h, 100 nM [8]: 1.45
efflux ratio at 2 h, 1 µM [8]: 1.39
efflux ratio at 2 h, 10 µM [8]: 1.64
Compound: CC[C@H](CO)Nc1nc(NCc2ccccc2O)c2ncn(C(C)C)c2n1 [olomoucine II]
potentiation of the antiproliferative effect of mitoxantrone [2]: synergistically potentiate
sulfatation in MDCKII cells (MDCKII cells): time-dependent generation of a metabolite
ABCG2 inhibitory potency compared with fumitremorgin C (ABCG2 [5]): comparable or even higher potency than fumitremorgin C
inhibition of ABCG2 (ABCG2 [5]): inhibition of ABCG2
change in r values after adding LY335979 (MDCKII-par cells): did not observe statistically significant changes

sulfatation in MDCKII cells (MDCKII cells): not subjected to sulfatation
efflux ratio at 6 h, 1 µM (ABCG2 [3]): 1.33
efflux ratio at 6 h, 10 µM (ABCG2 [3]): 1.26
ABCG2 substrate status (ABCG2 [4]; human): not an ABCG2 substrate
efflux ratio at 6 h, 1 µM (ABCG2 [4]; human): 1.28
efflux ratio at 6 h, 10 µM (ABCG2 [4]; human): 1.23
efflux ratio at 6 h, 1 µM (ABCB1 [6]; MDCK-MDR1): 1.2
efflux ratio at 6 h, 10 µM (ABCB1 [6]; MDCK-MDR1): 1.18
ABCB1 substrate status (ABCB1 [7]; human, MDCK-MDR1): not an ABCB1 substrate
efflux ratio at 6 h, 1 µM (ABCB1 [7]; human, MDCK-MDR1): 1.36
efflux ratio at 6 h, 10 µM (ABCB1 [7]; human, MDCK-MDR1): 1.26
efflux ratio at 6 h, 1 µM [8]: 1.14
efflux ratio at 6 h, 10 µM [8]: 1.05
Compound: CC(C)[C@H](CO)Nc1nc(Nc2cccc(Cl)c2)c2ncn(C(C)C)c2n1 [purvalanol A]
transport by placental ABCB1/ABCG2 in perfused rat placenta (placental ABCB1/ABCG2): showed no interactions with these transporters
potentiation of the antiproliferative effect of mitoxantrone [2]: synergistically potentiate
ABCG2 inhibitory potency compared with fumitremorgin C (ABCG2 [5]): comparable or even higher potency than fumitremorgin C
inhibition of ABCG2 (ABCG2 [5]): inhibition of ABCG2
ABCG2 inhibition (ABCG2 [1]): ABCG2 inhibition

Compound: CC[C@H](CO)Nc1nc(NCc2ccccc2)c2ncn(C(C)C)c2n1 [roscovitine]
inhibition of ABCB1 (ABCB1 [9]): significant inhibition of ABCB1
transport by ABCG2 (ABCG2 [10]): not transported
transport by ABCC1 [11]: not transported
transport by ABCC2 [12]: not transported
